Measurements from patent US11442059B2, “Method for treating a chronic itch condition by administering small molecule MrgprX4 antagonists” (The Johns Hopkins University, priority 2017, dated 2022).

How the values were obtained:
Mrgpra1-GFP = target: T1, Mrgpra1-GFP (Mus musculus, UniProt Q91WW5); assay: Receptor internalization assay, Mrgpra1-GFP HEK293 cells; format: cell-based; settings: 37° C.
T1 construct: expressed in transfected cells
T1 sequence (Q91WW5 1-304): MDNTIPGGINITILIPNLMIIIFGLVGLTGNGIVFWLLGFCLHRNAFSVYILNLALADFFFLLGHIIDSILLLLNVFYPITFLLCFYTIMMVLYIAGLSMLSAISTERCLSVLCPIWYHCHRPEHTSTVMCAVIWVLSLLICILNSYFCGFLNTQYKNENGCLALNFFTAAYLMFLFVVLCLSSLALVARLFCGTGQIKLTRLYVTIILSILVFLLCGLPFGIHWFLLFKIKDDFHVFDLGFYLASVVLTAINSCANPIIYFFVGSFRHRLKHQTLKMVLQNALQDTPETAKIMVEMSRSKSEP
Method: To label the drug with red-fluorescent dye, […] of LTG was dissolved in 50 μl dimethyformamide (DMF) first, and further diluted with 450 μl reaction buffer (0.1M sodium bicarbonate buffer, pH9.0) to obtain LTG at a concentration of 7.8 mM. Then, 50 μl of Texas-red-conjugated sulfonyl chloride (Thermo Fisher Scientific, T1905) dissolved in DMF at 10 mg ml−1 was slowly added into LTG solution. The reaction was incubated at 4° C. for 1 hour with continuous stirring. The mixture was then diluted into cell culture medium for further use. LTG labeled with Texas Red dye can create bright red-fluorescence with excitation/emission maxima ˜595/615 nm. HEK293 cells stably expressing Mrgpra1-GFP, Mrgprc11-GFP or MRGPRX4-GFP fusion protein were grown in DMEM with 10% FBS. After 4-6 hours of serum starvation, cells were treated with either medium, dye alone, unlabeled LTG or Texas-Red-labeled LTG at 37° C. for 15 or 60 min. Cells were washed with PBS and fixed with 4% paraformaldehyde in PBS. The subcellular localization of Mrgpr-GFP or drug was visualized under a confocal fluorescence microscope with a 400× magnification (Zeiss LSM 700).

129S1/SvImJ mice = assay: SJS/TEN mouse model (daily oral gavage of causative drug); format: in vivo; settings: for TUNEL-positive dead epithelial cells in paw: LTG oral daily
Method: Eight-to-ten week old male mice were orally gavaged with either causative drugs (LTG, allopurinol, oxcarbazepine) suspended in saline or saline once daily. The dosage was based on milligrams per kilogram of animal's body weight as indicated (for example, LTG 50 mg kg^−1 body weight). Skin, eyes, and mucosa, survival, body weight, physical and gross appearances (particularly on the eyes, mucosa and skins) were monitored every day.
The animals were deeply anesthetized with pentobarbital and transcardially perfused with 20 ml 0.1 M cold PBS (pH 7.4) followed with 25 ml of cold 4% paraformaldehyde (PFA). Paw skin, eyelid, spleen, lymph nodes were dissected out. postfixed in 4% PFA for more than two hours, and cryoprotected in a 20% followed by 30% sucrose solution for 24 hours each at 4° C. Tissue samples were embedded in the optimal cutting temperature (OCT) and frozen before being serially cut into 20 μm sections and placed onto slides. Hematoxylin and eosin (H&E) staining was performed using standard procedures according to the manufacturer's instruction VITROVIEW™ H&E Stain Kit). To quantify amount of apoptotic cells, terminal deoxynucleotidyl transferase dUTP nick end labeling (TUNEL) assay, a method for detecting DNA fragmentation that results from apoptotic cells by labeling the terminal end of nucleic acids, was performed by following the protocol of Apo-BrdU DNA Fragmentation Assay Kit (Biovision). To estimate the total cell number in tissue, all nuclei were stained with propidium iodide. Digital photographs were captured under confocal fluorescent microscopy at x200 magnification (Zeiss LSM 700). The number of TUNEL-positive nuclei were counted and reported as a percentage over the number of total nuclei observed in the skin's epidermis layer.

MRGPRX4 = MRGPRX4 (Homo sapiens, UniProt Q96LA9); assay: Ca2+ imaging / EC50 determination in HEK293 cells expressing MRGPRX4; format: cell-based; parameters: expressed in transfected cells
Method: Lamotrigine (LTG), allopurinol, carbamazepine and oxcarbazepine (all from Sigma) were prepared fresh on the day of the experiment. These drugs were dissolved into dimethyl sulfoxide (DMSO) first, and then were diluted at least 10000× into calcium imaging buffer before use. The final concentrations of drugs for each experiment were indicated in the corresponding figure legend.
In initial experiments, HEK293 cells were plated on 100 μg/ml poly-D-lysine coated glass cover slips, and transiently transfected with vector containing Mrgprs gene, after 24-48 hours of culture, cells were loaded with Fura 2-acetomethoxy ester calcium indicator (0.5 μM, Molecular Probes) along with pluronic F-127 dispersing agent (0.1%, Molecular Probes) for 30 minutes in the dark at 37° C., then washed with calcium imaging buffer (CIB; NaCl 125 mM, KCl 3 mM, CaCl2 2.5 mM, MgCl2 0.6 mM, HEPES 10 mM, glucose 20 mM, NaHCO3 1.2 mM, sucrose 20 mM, brought to pH 7.4 with NaOH). Drugs were added to Fura 2-loaded cells and intracellular free calcium was measured using 340 nm and 380 nm excitation wavelengths with emission measured at 520 nm with a microscope based imaging system (Nikon Eclipse TE200). Changes in emission fluorescence ratios at 340/380 nm excitation were continuously monitored at 1 second intervals. Later, experiments were performed using Mrgpra1-GFP, Mrgprc11-GFP and MRGPRX4-GFP stable cell lines to confirm the findings obtained from the transiently expressing cells.
Mrgpra1 or both wild-type and mutant MRGPRX4 stably expressed HEK cells were plated overnight in 100 μl culture media on 96-well plates. […] After 1 hour of incubation at 37° C., cells were allowed to recover for 10 minutes in the dark at room temperature prior to performing intracellular calcium mobilization assay in a FLEXSTATION® multi-mode plate reader (Molecular Devices). […] Responses were determined by subtracting the minimum signal (at the basal level before adding the drug) from the maximum signal (obtained after stimulating with the drug). […]

Chain of MRGPRX4 (Q96LA9 whole entry): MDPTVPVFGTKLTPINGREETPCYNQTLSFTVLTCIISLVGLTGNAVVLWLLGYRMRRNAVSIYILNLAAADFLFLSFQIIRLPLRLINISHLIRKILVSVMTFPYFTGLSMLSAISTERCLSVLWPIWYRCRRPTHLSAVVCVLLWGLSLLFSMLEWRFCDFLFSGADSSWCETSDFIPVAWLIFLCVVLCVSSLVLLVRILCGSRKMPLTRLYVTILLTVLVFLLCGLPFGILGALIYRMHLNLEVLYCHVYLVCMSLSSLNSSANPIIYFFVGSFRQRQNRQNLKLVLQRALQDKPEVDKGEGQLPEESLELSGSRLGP

## Nc1nnc(-c2cccc(Cl)c2Cl)c(N)n1 [LTG, Lamotrigine]
Mrgpra1-GFP
  internalization of Mrgpra1-GFP: can induce the internalization
129S1/SvImJ mice; LTG 50 mg kg−1 oral daily, by day 14, WT 129S1/SvImJ mice
  mortality rate: 60%
129S1/SvImJ mice; day 9, HET mice
  TUNEL-positive dead epithelial cells in paw: 45.99±1.84%
129S1/SvImJ mice; day 9, KO mice
  TUNEL-positive dead epithelial cells in paw: 6.10±1.63%
129S1/SvImJ mice; day 9, WT mice
  TUNEL-positive dead epithelial cells in paw: 48.74±5.94%
129S1/SvImJ mice; day 14 of LTG treatment, KO group
  survival: no mouse died
129S1/SvImJ mice; day 14 of LTG treatment, WT and HET groups
  mice survived: 30%
MRGPRX4; HEK293 cells, Ca2+ assay
  EC50: ~200 µM
MRGPRX4; Mrgprs individually expressed in HEK293 cells
  activation of human MRGPRX4 (Ca2+ imaging): specifically activated
